Data from patent US20030113312A1, “Skin barrier function and cohesion through enhanced stratum corneum acidification” (The Regents of the University of California, priority 2001, published 2003).
“And” between values parts separate entries of the source, which are not always exact repeats. Equal values may be shown once.

What was measured:
Murine skin = conditions: 4 mg/mL topical in propylene glycol:ethanol; cited from earlier work
[1] = tested on: hairless mice skin (stratum corneum); assay: Stratum corneum integrity: TEWL after sequential tape stripping; assay type: in vivo, mouse
Procedure: The mice were anesthetized with chloral hydrate (Morton Grove Pharmaceuticals, Morton Grove, Ill., USA). […] After 15 minutes, barrier function was determined by measurement of transepidermal water loss (TEWL) with an electrolytic water analyzer (MEECO®, Warrington, Pa.). […] Individually tested sites were covered with Hilltop Chambers (HtC, nominal volume 200 mL), which were reapplied following each indvidual measurement.
The stratum corneum was removed by several strippings with adhesive tape (Tesa, Beiersdorf, Germany) inducing an increase in TEWL rates above baseline (from 0.2 to approximately 7-9 g/m^2/h). Two sites were prepared on each animal, and TEWL and surface pH were measured at 0, 2, 5 and 24 hrs following the stripping and the applications of inhibitors.

[2] = tested on: hairless mice skin (stratum corneum); assay: Skin surface pH after topical treatment or buffer exposure; assay type: in vivo, mouse; conditions: for pH of the stratum corneum: BPB alone, three days
Procedure: Animals: Male hairless mice (Skh1/Hr, Charles River Laboratories, Wilmington, Mass.), 8-12 weeks old, were fed Purina mouse diet and water ad libitum. […] Functional experiments were performed on animals aged 6-10 weeks.
The mice were anesthetized with chloral hydrate (Morton Grove Pharmaceuticals, Morton Grove, Ill., USA). After 3 hours immersion at 37° C., the mice were removed, and the remaining buffer was gently blotted off. After 15 minutes, barrier function was determined by measurement of transepidermal water loss (TEWL) with an electrolytic water analyzer (MEECO®, Warrington, Pa.). Surface pH was measured with a flat, glass surface electrode from Mettler-Toledo (Giessen, Germany), attached to a pH meter (Skin pH Meter PH 900, Courage & Khazaka, Cologne, Germany). Individually tested sites were covered with Hilltop Chambers (HtC, nominal volume 200 mL), which were reapplied following each indvidual measurement.

[3] = tested on: desmosomes in the lower stratum corneum; assay: Desmosome density by microscopy and desmoglein-1 immunostaining; assay type: in vivo, mouse; conditions: for density of desmosomes in lower stratum corneum and at SC-SG interface: inhibitor-treated murine skin vs controls
From the text: Ultrastructural methods: Freshly obtained biopsies from mouse skin were fixed directly in modified Karnovsky's fixative, postfixed with reduced osmium tetroxide (OS04) and then imbedded in an Epon-epoxy mixture. For visualization of lipid-enriched, lamellar bilayer structures, some samples were post fixed in ruthenium tetroxide (RuO4). Sections were cut on a Reichert Ultracut E microtome, counterstained with uranyl acetate and lead citrate, and viewed in a Zeiss 10 CR electron microscope, operated at 60 kV.
Immunofluorescence Staining: Hairless mouse skin was excised with a 6 mm punch biopsy, and the subcutaneous fat was removed. Tissue sections were incubated for 1 hour in blocking buffer (1% bovine serum albumin, 0.1% cold water fish gelatin in phosphate buffered saline (PBS)), and were then incubated for 1 hour further at room temperature with 1:500 dilution of polyclonal rabbit anti-mouse desmoglein 1 antibody (gift of Dr. John Stanley, University of Pennsylvania) diluted in blocking buffer. The tissue was then washed with blocking buffer and incubated one hour at room temperature with floroscien-labeled, isothiocyanate-conjugated, goat anti-rabbit IgG antibody (DAKO, Carpinteria, Calif., USA), diluted in blocking buffer. Either preincubation of DSG 1 antibody with DSG 1-recombinant protein (gift of Dr. Masayuki Amagai, Keio University, Tokyo, Japan), or omission of the DSG 1 primary antibody eliminated specific staining. Tissue sections then were washed with PBS and coverslipped before visualization under confocal microscope (Leica TCS SP, Heidlberg, Germany) using FITC at an excitation wavelength of 494 nm and an emisson wavelength of 518 nm.
To further investigate the changes in stratum corneum cohesion that are brought about by application of secretory phospholipase A2 inhibitors, BPB and MJ33 treated samples of murine skin and the corresponding untreated controls, were assessed by immunohistochemical staining and confocal microscopy. […]

[4] = tested on: hairless mice skin (stratum corneum); assay: Barrier function by transepidermal water loss (TEWL); assay type: in vivo, mouse
Procedure: Animals: Male hairless mice (Skh1/Hr, Charles River Laboratories, Wilmington, Mass.), 8-12 weeks old, were fed Purina mouse diet and water ad libitum. […] Each litter was genotyped separately. Functional experiments were performed on animals aged 6-10 weeks.
The mice were anesthetized with chloral hydrate (Morton Grove Pharmaceuticals, Morton Grove, Ill., USA). After 3 hours immersion at 37° C., the mice were removed, and the remaining buffer was gently blotted off. After 15 minutes, barrier function was determined by measurement of transepidermal water loss (TEWL) with an electrolytic water analyzer (MEECO®, Warrington, Pa.). Surface pH was measured with a flat, glass surface electrode from Mettler-Toledo (Giessen, Germany), attached to a pH meter (Skin pH Meter PH 900, Courage & Khazaka, Cologne, Germany). Individually tested sites were covered with Hilltop Chambers (HtC, nominal volume […]), which were reapplied following each indvidual measurement.

[5] = tested on: hairless mice skin (stratum corneum); assay: Stratum corneum cohesion: protein removed per D-Squame stripping; assay type: in vivo, mouse; conditions: after three days of inhibitor treatment alone; vehicle about 5
Procedure: Before stripping the stratum corneum, the skin surface was cleaned with a single ethanol wipe. D-Squame tapes then were placed sequentially to the test areas for about 3 sec each, removed with forceps, and stored in glass scintillation vials at 5° C.
The protein content per stripping was determined with the Bio-Rad protein assay kit. […] Each tape was incubated with 1 M NaOH for 1 hour at 37° C. in an incubator shaker at 80 rpm, and neutralized thereafter with 1 mL of 1 M HCl in the scintillation vials. Subsequently, 0.2 mL of this solution was incubated in 0.6 ml distilled water plus 0.2 mL of the Bio-Rad protein dye for 5 minutes in boroscillate tubes. […] An empty D-Squame tape, as well as distilled water incubated with Bio-Rad dye, served as negative controls. The amount of calculated protein was then normalized to skin surface area (μg/cm^2).

SMILES | toxicity of the dose employed to Murine skin (Murine skin) | TEWL rate after three consecutive tape strips ([1]; day 3 of inhibitor treatment alone, vehicle closer to 40) [g/m^2/h] | stratum corneum surface pH ([2]; MJ33 4 mg/mL topical, vs vehicle 5.60+/-0.05, p=0.0023) | density of desmosomes in lower stratum corneum and at SC-SG interface [3] | fold increase in TEWL rates ([4]; by day three, vs vehicle) | TEWL rate ([4]; repeated applications, day three, vs vehicle 2.97+/-0.16, p<0.001) | TEWL rate after fifth tape strip ([1]; after three days of inhibitor treatment alone, vehicle close to 25) | TEWL rate after second tape strip ([1]; after three days of inhibitor treatment alone, vehicle closer to 5) [g/m^2/h] | protein removed, first D-Squame strip [5] | pH of the stratum corneum ([2]; comparator of the linoleic acid co-application) | pH of the stratum corneum ([2]; comparator of the palmitic acid co-application) | pH of the stratum corneum ([2]; comparator of the stearic acid co-application) | pH of the skin ([2]; hairless mice, 4 mg/mL topical twice daily, after one day, starting value about pH 5.6) [pH] | final average pH of treated sites ([2]; hairless mice, 4 mg/mL topical twice daily, day 3, vehicle close to pH 5.4) [pH] | density of DSG1 positive clusters ([3]; laser confocal microscopy, treated vs vehicle stratum corneum) | TEWL rate ([4]; 4 mg/mL topical twice daily, day 2, vehicle closer to 2.5) [g/m^2/h] | TEWL rate ([4]; 4 mg/mL topical twice daily, day three, vehicle near 3) [g/m^2/h]
CCCCCCCCCCCCCCCCOCC(COCC(F)(F)F)OP(=O)(O)OC (stereo not shown) [MJ33, One-hexadecyl-3-triflouroethylglycero-sn-2-phosphomethanol] | non-toxic | ~75 | 5.87+/−0.06 | dramatic reduction | 2-3 fold | 5.19+/−0.81 | – | – | – | – | – | – | – | – | – | – | –
O=C(CBr)c1ccc(Br)cc1 [BPB, bromphenacyl bromide] | non-toxic | – | – | dramatic reduction | – | – | ~90 g/m^2/h and 80-100 g/m^2/h | ~20 | about 20 μg/cm^2 | 6.28+/−0.1 | 5.92+/−0.05 | 6.17+/−0.08 | ~6.0 | ~6.4 | decline dramatically | ~6 | ~11
